Measurements as given in the OPERA property sets (Mansouri et al. 2018).

Question: With `CCOC(=O)CCC(=O)N(C)c1cccc(S(=O)(=O)N(C)C)c1` as the compound, how does the logP read?
Answer: Its logP is 0.84.

Question: Which logP does the source give for `COc1nnccc1N(C)C` here?
Answer: Its logP is 0.9.
